Results as given in EP0345251B1 (priority 1986, dated 1988).

Tests used:
leukaemia L1210 = experiment: Antitumour activity against leukaemia L1210 (survival); format: in vivo, BDF₁ mice; set-up: MST: unit not given here; conditions: for MST: median survival time; for T/C: treated/control; for SURVIVAL (mean days) / SURVIVORS No. at 60 d: in combination CRON 200 mg/kg, CR same as MTZ
Method: Antitumour effects. Male Swiss Schneider mice of 27g body weight were used for the sarcoma S180 experiments: female C₅₇Bl mice of 20g body weight were used for the B16 melanoma experiments; […]; and C₅₇Bl mice of 20g body weight were used for the Lewis lung experiments.
L1210. Spleens were removed from animals 7 days after inoculation of L1210 cells and these spleens were finely minced with 1:100 isotonic saline. 0.1 ml of this spleen and leukaemia L1210 cell suspension was then injected subcutaneously into the flank of each BDF₁.

[1] = system: Lewis lung carcinoma (3LL); experiment: Lewis lung carcinoma (3LL): primary tumour and lung secondaries; format: in vivo, C₅₇Bl mice
Method: Antitumour effects. Male Swiss Schneider mice of 27g body weight were used for the sarcoma S180 experiments: female C₅₇Bl mice of 20g body weight were used for the B16 melanoma experiments; male BDF₁ mice of 30g body weight were used for the L1210 leukaemia experiments; and C₅₇Bl mice of 20g body weight were used for the Lewis lung experiments.
Lewis lung (3LL). This tumour was prepared for inoculation in a manner identical to that used for the S180 sarcoma.
This tumour metastasizes to the lungs when implanted into the flanks of mice. […]

[2] = Mitozantrone toxicity in mice, with and without Cronassial; format: in vivo, Male Swiss Schneider mice; conditions: host SN
Method: (§1) Toxicity acute and chronic. Male Swiss Schneider mice with a body weight of 25-30g were used for these experiments. Mice were usually kept in groups of not more than 8 in standard cages. Food and water were supplied ad libidum. The animals were kept in experimental rooms under closely controlled conditions. They were weighed daily. For acute vincristine toxicity in chicks, 48 hour old SPF chicks were used.
Cronassial®. A solution of this substance, which is a mixture of four gangliosides, was prepared by the addition of a volume of sterile distilled water sufficient to give a concentration of 200 mg/kg in a volume of 0.2 ml. This dose was given to mice of approximately 20g.
(§2) Mitozantrone was made up in an appropriate manner. It was given in a volume of 0.2ml when the injections were given intraperitoneally but when given by another route, the volumes given were indicated in the appropriate Table.

[3] = Mitozantrone toxicity in mice bearing S180, with and without Cronassial; format: in vivo, Male Swiss Schneider mice; conditions: chronic, host SN (+S180), MTZ 5 mg/kg ip days 3.4.5
Method: as §1
Sarcoma S180. This tumour has been transplanted in the same strain of mouse for more than 10 years.
Transplantation was done by subcutaneous inoculation of 0.1 ml of a tumour mash made by finely mincing viable tumour tissue and passing it repeatedly through a 26 gauge needle into a sterile Petri dish. 0.1 ml of penicillin (20,000 m/ml) and streptomycin (20,000 m/ml) were added to the mash, as well as neomycin (5 mgs).
as §2

[4] = Blood counts (Coulter counter) after mitozantrone, with and without Cronassial; format: in vivo; conditions: blood by cardiac puncture
[5] = L1210, host BDF1, MTZ 5 mg/kg ip days 0.1.2
[6] = L1210, host BDF1, MTZ 5 mg/kg ip days 1.2.3
[7] = chronic, first pair of Table 4: MTZ 5 ip days 1,2, in combination CRON 200 same time as MTZ
[8] = chronic, second series of Table 4: MTZ 5 ip days 1,2, in combination CRON 200 same time as MTZ
[9] = M, MTZ 4 mg/kg iv x 3, days 1.2.3, in combination CRON 200 mg/kg, mixed as one injection

## COc1cccc2c1C(=O)c1c(O)c3c(c(O)c1C2=O)C[C@@](O)(C(=O)CO)C[C@@H]3O[C@H]1C[C@H](N)[C@H](O)[C@H](C)O1 [ADR, adriamycin]
Leukaemia L1210; Table 11: BDF ♀ 20g, L1210 s.c., 8/group, i.p. days 1, 2, 3, ADR 4.0 mg/kg, in combination CRON 200
  DEATHS L1210: 8
Leukaemia L1210; Table 11: BDF ♀ 20g, L1210 s.c., 8/group, i.p. days 1, 2, 3, ADR 6.0 mg/kg, in combination CRON 200
  DEATHS L1210: 8
Leukaemia L1210; Table 11: BDF ♀ 20g, L1210 s.c., 8/group, i.p. days 1, 2, 3, ADR 8.0 mg/kg, in combination CRON 200
  DEATHS L1210: 8
Leukaemia L1210; Table 12: BDF ♂ 35g (6/12 old), L1210 s.c., 8/group, i.p. days 1, 2, 3, ADR 6.0 mg/kg
  DEATHS L1210: 1
Leukaemia L1210; Table 12: BDF ♂ 35g (6/12 old), L1210 s.c., 8/group, i.p. days 1, 2, 3, ADR 6.0 mg/kg, in combination CRON 200
  DEATHS TOXICITY: 7
Leukaemia L1210; Table 12: BDF ♂ 35g (6/12 old), L1210 s.c., 8/group, i.p. days 1, 2, 3, ADR 8.0 mg/kg, in combination CRON 200
  DEATHS TOXICITY: 8
Leukaemia L1210; Table 12: BDF ♂ 35g (6/12 old), L1210 s.c., 8/group, i.p. days 1, 2, 3, ADR 10.0 mg/kg, in combination CRON (dose not given)
  DEATHS TOXICITY: 8
Leukaemia L1210; Table 12: BDF ♂ 35g (6/12 old), L1210 s.c., i.p. days 1, 2, 3, ADR 8.0 mg/kg
  COMMENTS: Toxic
Leukaemia L1210; Table 12: BDF ♂ 35g (6/12 old), L1210 s.c., i.p. days 1, 2, 3, ADR 10.0 mg/kg, bracket spans ADR and ADR/CRON lines
  COMMENTS: ) Toxic
Leukaemia L1210; Table 13: BDF ♀ 25g (2-3/12 old), L1210 s.c., 7/group, i.p. days 1, 2, 3, ADR 10.0 mg/kg, in combination CRON 200
  DEATHS TOXICITY: 7
Leukaemia L1210; Table 13: BDF ♀ 25g (2-3/12 old), L1210 s.c., 7/group, i.p. days 1, 2, 3, ADR 12.5 mg/kg, in combination CRON 200
  DEATHS TOXICITY: 7
Leukaemia L1210; Table 13: BDF ♀ 25g (2-3/12 old), L1210 s.c., 7/group, i.p. days 1, 2, 3, ADR 15.0 mg/kg, in combination CRON (dose not given)
  DEATHS TOXICITY: 7
Leukaemia L1210; Table 13: BDF ♀ 25g (2-3/12 old), L1210 s.c., i.p. days 1, 2, 3, ADR 12.5 mg/kg, bracket spans ADR and ADR/CRON lines
  COMMENTS: } Toxic
Leukaemia L1210; Table 13: BDF ♀ 25g (2-3/12 old), L1210 s.c., i.p. days 1, 2, 3, ADR 15.0 mg/kg, bracket spans ADR and ADR/CRON lines
  COMMENTS: } Toxic
Leukaemia L1210; Table 11: BDF ♀ 20g, L1210 s.c., i.p. days 1, 2, 3, ADR 4.0 mg/kg, in combination CRON 200, control 6.8
  MST: 10.8
Leukaemia L1210; Table 11: BDF ♀ 20g, L1210 s.c., i.p. days 1, 2, 3, ADR 6.0 mg/kg, in combination CRON 200, control 6.8
  MST: 9.7
Leukaemia L1210; Table 11: BDF ♀ 20g, L1210 s.c., i.p. days 1, 2, 3, ADR 8.0 mg/kg, in combination CRON 200, control 6.8
  MST: 11.8
Leukaemia L1210; Table 12: BDF ♂ 35g (6/12 old), L1210 s.c., i.p. days 1, 2, 3, ADR 6.0 mg/kg, in combination CRON 200, control 7.0
  MST: 9.38
Leukaemia L1210; Table 12: BDF ♂ 35g (6/12 old), L1210 s.c., i.p. days 1, 2, 3, ADR 8.0 mg/kg, in combination CRON 200, control 7.0
  MST: 5.8
Leukaemia L1210; Table 12: BDF ♂ 35g (6/12 old), L1210 s.c., i.p. days 1, 2, 3, ADR 10.0 mg/kg, in combination CRON (dose not given), control 7.0
  MST: 5.5
Leukaemia L1210; Table 13: BDF ♀ 25g (2-3/12 old), L1210 s.c., i.p. days 1, 2, 3, ADR 10.0 mg/kg, in combination CRON 200, control 10.6
  MST: 10.3
Leukaemia L1210; Table 13: BDF ♀ 25g (2-3/12 old), L1210 s.c., i.p. days 1, 2, 3, ADR 12.5 mg/kg, in combination CRON 200, control 10.6
  MST: 5.4
Leukaemia L1210; Table 13: BDF ♀ 25g (2-3/12 old), L1210 s.c., i.p. days 1, 2, 3, ADR 15.0 mg/kg, in combination CRON (dose not given), control 10.6
  MST: 5.1
Leukaemia L1210; Table 11: BDF ♀ 20g, L1210 s.c., i.p. days 1, 2, 3, ADR 4.0 mg/kg, in combination CRON 200
  T/C: 159
Leukaemia L1210; Table 11: BDF ♀ 20g, L1210 s.c., i.p. days 1, 2, 3, ADR 6.0 mg/kg, in combination CRON 200
  T/C: 135
Leukaemia L1210; Table 11: BDF ♀ 20g, L1210 s.c., i.p. days 1, 2, 3, ADR 8.0 mg/kg, in combination CRON 200
  T/C: 174
Leukaemia L1210; Table 12: BDF ♂ 35g (6/12 old), L1210 s.c., i.p. days 1, 2, 3, ADR 6.0 mg/kg, in combination CRON 200
  T/C: 134
Leukaemia L1210; Table 12: BDF ♂ 35g (6/12 old), L1210 s.c., i.p. days 1, 2, 3, ADR 8.0 mg/kg, in combination CRON 200
  T/C: 83
Leukaemia L1210; Table 12: BDF ♂ 35g (6/12 old), L1210 s.c., i.p. days 1, 2, 3, ADR 10.0 mg/kg, in combination CRON (dose not given)
  T/C: 79
Leukaemia L1210; Table 13: BDF ♀ 25g (2-3/12 old), L1210 s.c., i.p. days 1, 2, 3, ADR 10.0 mg/kg, in combination CRON 200
  T/C: 97
Leukaemia L1210; Table 13: BDF ♀ 25g (2-3/12 old), L1210 s.c., i.p. days 1, 2, 3, ADR 12.5 mg/kg, in combination CRON 200
  T/C: 51
Leukaemia L1210; Table 13: BDF ♀ 25g (2-3/12 old), L1210 s.c., i.p. days 1, 2, 3, ADR 15.0 mg/kg, in combination CRON (dose not given)
  T/C: 48
[1]; C57Bl mice, 3LL s.c., 8/group, ADR 3 mg/kg i.p. days 6-10, in combination CRN 200 mg/kg
  COMMENTS (survival): All ADR alone animals dead by d17

## CO[C@@]12[C@H](COC(N)=O)C3=C(C(=O)C(C)=C(N)C3=O)N1C[C@@H]1N[C@@H]12 [MMC, Mitomycin C]
Leukaemia L1210; Table 15: BDF mice, L1210 s.c., 8/group, i.p. days 1, 2, 3, MMC 5 mg/kg, in combination CRN 200 mg/kg
  SURVIVORS 14d: 1
Leukaemia L1210; Table 15: BDF mice, L1210 s.c., i.p. days 1, 2, 3, MMC 5 mg/kg, in combination CRN 200 mg/kg, control 7.1
  MST: 7.0

## O=C1c2c(O)ccc(O)c2C(=O)c2c(NCCNCCO)ccc(NCCNCCO)c21 [MTZ, mitozantrone]
Leukaemia L1210; [5]
  SURVIVAL (mean days): 6.14 days
  SURVIVORS No. at 60 d: 1/8
Leukaemia L1210; [6]
  SURVIVAL (mean days): 17.1 days
  SURVIVORS No. at 60 d: 2/8
Leukaemia L1210; L1210, host BDF1, MTZ 5 mg/kg ip days 3.4.5, CMC-controls 0/8
  SURVIVORS No. at 60 d: 0/8
Leukaemia L1210; L1210, host BDF1, MTZ 5 mg/kg ip days 3.4.5, CMC-controls 8.7
  SURVIVAL (mean days): 25.2 days
Leukaemia L1210; L1210, host DBA, MTZ 5 mg/kg ip days 2.3.4, CMC-controls 0/6
  SURVIVORS No. at 60 d: 0/6
Leukaemia L1210; L1210, host DBA, MTZ 5 mg/kg ip days 2.3.4, CMC-controls 7.2
  SURVIVAL (mean days): 16.8 days
[2]; [7]
  SURVIVAL (mean days): 9 days
  SURVIVORS No.at 30 d: 0/6
[2]; [8]
  SURVIVAL (mean days): 11 days
  SURVIVORS No.at 30 d: 0/6
[2]; [9]
  SURVIVAL (mean days): 7.8 days
  SURVIVORS d.30: 0/5
[3]
  SURVIVORS No.at 30 d: 0/8
[3]; in combination CRON 200 mg/kg, CR same time MTZ
  SURVIVAL (mean days): 8.8 days
[4]; Day 5., controls 7.9
  MEAN VALUES OF INDIVIDUAL ANIMALS RBC x 10¹²/l: 7.3 x 10¹²/l
[4]; Day 5, controls 9.3
  MEAN VALUES OF INDIVIDUAL ANIMALS WBC X 10⁹/l: 3.5 X 10⁹/l
[4]; Day 5, controls 632
  MEAN VALUES OF INDIVIDUAL ANIMALS PLATELETS x 10⁹/l: 631 x 10⁹/l
[4]; Day 7
  MEAN VALUES OF INDIVIDUAL ANIMALS PLATELETS x 10⁹/l: 845 x 10⁹/l
  MEAN VALUES OF INDIVIDUAL ANIMALS RBC x 10¹²/l: 7.0 x 10¹²/l
  MEAN VALUES OF INDIVIDUAL ANIMALS WBC X 10⁹/l: 2.2 X 10⁹/l
[4]; Day 8, controls 5.2
  MEAN VALUES OF INDIVIDUAL ANIMALS WBC X 10⁹/l: 3.2 X 10⁹/l
[4]; Day 8, controls 7.2
  MEAN VALUES OF INDIVIDUAL ANIMALS RBC x 10¹²/l: 7.1 x 10¹²/l
[4]; Day 8, controls 649
  MEAN VALUES OF INDIVIDUAL ANIMALS PLATELETS x 10⁹/l: 1058 x 10⁹/l
[1]; 3LL in flank, mitozantrone 3.0 mg/kg for 5 days, day 5 to 9 after implantation
  mice died by day 14: 7/8
